From patent publication US7008636B2, “2,3,5-substituted biphenyls useful in the treatment of insulin resistance and hyperglycemia” (Wyeth, priority 1998, dated 2006)

Key:
[1] = biological target: T1, recombinant, human protein tyrosine phosphatase (PTP) 1B (hPTP1B) (Homo sapiens, UniProt P18031); experiment: Inhibition of tri-phosphorylated insulin receptor dodecaphosphopeptide dephosphorylation by hPTP1B; format: biochemical; conditions: 50 μM IR triphosphopeptide substrate, 5 min preincubation and 5 min reaction at 37° C., malachite green-ammonium molybdate phosphate detection
T1 construct: made in house
T1 sequence (P18031 1-435): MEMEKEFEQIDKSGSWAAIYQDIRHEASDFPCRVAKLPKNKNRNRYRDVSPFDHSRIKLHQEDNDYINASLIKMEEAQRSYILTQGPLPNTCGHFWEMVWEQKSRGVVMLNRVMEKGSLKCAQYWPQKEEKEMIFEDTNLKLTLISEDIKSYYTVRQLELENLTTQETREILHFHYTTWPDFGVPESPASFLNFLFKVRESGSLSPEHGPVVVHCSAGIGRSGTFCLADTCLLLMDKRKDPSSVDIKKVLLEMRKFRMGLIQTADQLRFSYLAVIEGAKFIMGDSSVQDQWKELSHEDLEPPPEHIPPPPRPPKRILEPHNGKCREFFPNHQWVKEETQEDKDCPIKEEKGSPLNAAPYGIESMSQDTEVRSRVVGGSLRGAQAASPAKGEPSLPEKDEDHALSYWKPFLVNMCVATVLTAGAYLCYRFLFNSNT

| SMILES | IC50 [1] [nM] | melting point |
| --- | --- | --- |
| COc1ccc2c(c1)cc(C)n2CCCCCCCCNC(=O)c1cc(-c2cccc(Cl)c2)c(OCC(=O)O)c(-c2cccc(Cl)c2)c1 [Example 99, {3,3″-Dichloro-5′-[8-(5-methoxy-2-methyl-indol-1-yl)-octylcarbamoyl]-[1,1′;3′1″]-terphenyl-2′-yloxy}acetic acid] | 267 | > 75 °C (dec.) |
| O=C(O)COc1c(-c2cccc(Cl)c2)cc(C(=O)NCC2(COCCCCc3ccccc3)CC2)cc1-c1cccc(Cl)c1 [Example 100, (3,3″-Dichloro-5′-{[1-(4-phenyl-butoxymethyl)-cyclopropylmethyl]-carbamoyl}-[1,1′;3′1″]terphenyl-2′-yloxy)acetic acid] | 389 | > 52 °C (dec.) |
| Cc1cc(C)cc(-c2cc(C(=O)NCCCCCCCc3ccccc3)cc(-c3cc(C)cc(C)c3)c2OCCCC(=O)O)c1 [Example 148, 4-[3,5,3″,5″-Tetramethyl-5′-(7-phenyl-heptylcarbamoyl)-[1,1′:3′,1″]terphenyl-2′-yloxy]-butyric acid] | 249 | 64 to 66 °C |
| CCCCCCCCCCCCNC(=O)c1cc(Br)c(OCC(=O)O)c(-c2ccccc2F)c1 [Example 156, (3-Bromo-5-dodecylcarbamoyl-2′-fluoro-biphenyl-2-yloxy)acetic acid] | 278 | 128 to 138 °C |
| CCCCCCCCCCCCNC(=O)c1cc(-c2cc(Cl)cc(Cl)c2)c(OCC(=O)O)c(-c2cc(Cl)cc(Cl)c2)c1 [Example 159, (3,5,3″,5″-Tetrachloro-5′-dodecylcarbamoyl-[1,1′;3′,1″]terphenyl-2′-yloxy)acetic acid] | 44 | 139 to 144 °C |
| O=C(O)COc1c(-c2cc(Cl)cc(Cl)c2)cc(C(=O)NCCCCCCCCc2ccccc2)cc1-c1cc(Cl)cc(Cl)c1 [Example 160, [3,5,3″,5″-Tetrachloro-5′-(8-phenyl-octylcarbamoyl)-[1,1′;3′,1″]terphenyl-2′-yloxy]acetic acid] | 54 | 139 to 149 °C |
| O=C(O)COc1c(-c2cc(Cl)cc(Cl)c2)cc(C(=O)NCCCCCCc2ccccc2)cc1-c1cc(Cl)cc(Cl)c1 [Example 161, [3,5,3″,5″-Tetrachloro-5′-(6-phenyl-hexylcarbamoyl)-[1,1′;3′,1″]terphenyl-2′-yloxy]acetic acid] | 33 | 151 to 159 °C |
| CCCCCCc1cc(-c2ccccc2)c(OCC(=O)O)c(-c2ccccc2)c1 [Example 169, (5′-Hexyl-[1,1′;3′,1″]terphenyl-2′-yloxy)acetic acid] | 905 | 87 to 89 °C |
| CCCCCCCCCc1cc(-c2ccccc2)c(OCC(=O)O)c(-c2ccccc2)c1 [Example 170, (5′-Nonyl-[1,1′;3′,1″]terphenyl-2′-yloxy)acetic acid] | 178 | 63 to 65 °C |
| CCCCCCCCCCCCCCOc1cc(-c2ccccc2)c(OCC(=O)O)c(-c2ccccc2)c1 [Example 173, (5′-Tetradecyloxy-[1,1′;3′,1″]terphenyl-2′-yloxy)acetic acid] | 28 | 89 to 90 °C |
| O=C(O)COc1c(-c2ccccc2)cc(C(c2ccccc2)(c2ccccc2)c2ccccc2)cc1-c1ccccc1 [Example 174, (5′-Trityl-[1,1′;3′,1″]terphenyl-2′-yloxy)acetic acid] | 633 | 211 to 214 °C |

Now from value to molecule:

| IC50 [1] [nM] | melting point | SMILES |
| --- | --- | --- |
| 162 | 130 to 132 °C | CC(C)(COc1c(-c2cccc(C(F)(F)F)c2)cc(C(=O)NCCCCCCCc2ccccc2)cc1-c1cccc(C(F)(F)F)c1)C(=O)O [Example 129, 2,2-Dimethyl-3-[5′-(7-phenyl-heptylcarbamoyl)-3,3″-bis-trifluoromethyl-[1,1′:3′,1″]terphenyl-2′-yloxy]-propionic acid] |
| 1150 | 58 to 62 °C | Cc1cccc(-c2cc(C(=O)NCCCCCCCc3ccccc3)cc(-c3cccc(C)c3)c2OCC(=O)O)c1 [Example 145, [3,3″-Dimethyl-5′-(7-phenyl-heptylcarbamoyl)-[1,1′:3′,1″]terphenyl-2′-yloxy]acetic acid] |
| 246 | 139 to 144 °C | COc1ccc(-c2cc(C(=O)NCCCCCCCCc3ccccc3)cc(-c3cccc(C(F)(F)F)c3)c2OCC(=O)O)cc1 [Example 158, [4″-Methoxy-5′-(8-phenyl-octylcarbamoyl)-3-trifluoromethyl-[1,1′;3′,1″]terphenyl-2′-yloxy]acetic acid] |
| 50 | 154.3 to 158.2 °C | CCCCCCCCCCCCNC(=O)c1cc(-c2cccc(C(F)(F)F)c2)c(OCC(=O)O)c(-c2cccc(C(F)(F)F)c2)c1 [Example 175, (5′-Dodecylcarbamoyl-3,3″-bis-trifluoromethyl-{1,1′;3′,1″]terphenyl-2′-yloxy)-acetic acid] |
| 336 | 166.5 to 168.8 °C | O=C(O)COc1c(-c2cccc(C(F)(F)F)c2)cc(C(=O)NCCCCCCc2ccccc2)cc1-c1cccc(C(F)(F)F)c1 [Example 189, [5′-(6-Phenyl-hexylcarbamoyl)-3,3″-bis-trifluoromethyl-[1,1′:3′,1″}terphenyl-2′-yloxy]-acetic acid] |
| 217 | 145.4 to 150.8 °C | O=C(NCCCCCCCCc1ccccc1)c1cc(-c2cccc(C(F)(F)F)c2)c(OCCCCc2nnn[nH]2)c(-c2cccc(C(F)(F)F)c2)c1 [Example 198] |
